The target in the experiment is 52SFK (HAdV-52 short fiber knob) (human adenovirus 52, UniProt A0MK70). In words: SPR with immobilized knob. The settings on record: oligoSia in solution. It counts as binding.

The structures appear in SMILES notation.

As for `CC(=O)N[C@H]1[C@H]([C@H](O)[C@H](O)CO)O[C@@](O[C@H](CO)[C@@H](O)[C@@H]2OC(O)(C(=O)O)C[C@H](O)[C@H]2NC(C)=O)(C(=O)O)C[C@@H]1O` (stereo partly shown) [DP2, disialic acid], the “SPR with immobilized knob” value was “the biggest increase in affinity was shown between DP2 and DP3”.

Values taken from paper PMC5939068 (Proceedings of the National Academy of Sciences of the …, 2018).
